Assay [1] has as its target T1, human galectin-1 (Gal-1, full length) (Homo sapiens, UniProt P09382).
T1 construct: Gal-1 is a prototype galectin consisting of a single CRD and was used in full length; 6xHis tag with TEV protease site (N, cleaved yes); made in house; host or cells: BL21 Escherichia coli (pET-15b)
In words: Competitive fluorescence polarization assay, Gal-1. The assay is classed as binding. The protocol:
(§1) Our investigation of the structure–activity relationship of N-aryl-N-lactosylamides started with an initial screening of substituted acetanilides (Table ). These compounds can be readily synthesized from a wide range of commercially available substituted anilines. Affinity was evaluated using a fluorescence polarization assay, which enables reliable determination of dissociation constants (K d) between small molecules and galectins. All inhibitors in this series were tested against the two most common human galectins: Gal-1 and Gal-3. Gal-1 is a prototype galectin consisting of a single CRD and was used in full length. In the case of Gal-3, which consists of the C-terminal CRD and N-terminal unfolded region, only the C-terminal domain was used (Gal-3C). Affinities were compared to methyl β-lactoside (β-LacOMe) as a baseline.
(§2) Fluorescence polarization experiments for determining inhibitor affinities were performed using the same instrumentation and settings as described for the direct binding experiments. […] The galectin–probe mixture was subsequently added using a Certus Flex liquid handler (Fritz Gyger AG, Switzerland) to reach a final volume of 5 μL. Anisotropy was measured after 30–60 min incubation at 25 °C. Inhibitor dissociation constants (K d) were calculated using Wang’s exact cubic model for competitive binding implemented in the BindCurve package. Protein and probe concentrations used in these competitive experiments are provided in the Supporting Information.
(§3) Competitive binding was modeled by Wang’s exact cubic model,3 which is written as […]
(§4) r = rmin + (rmax − rmin) 3 (6) […]
(§5) where r, rmin and rmax have the same meaning as in Equation 1. The coefficients a, b, and c are […]
(§6) a = Kd∗ + Kd + [L∗]T + [L]T − [R]T (7) b = Kd∗([L]T − [R]T) + Kd([L∗]T − [R]T) + Kd∗ Kd (8) […]
(§7) where Kd∗ is the dissociation constant of the probe, Kd is the dissociation constant of the […]
(§8) the unlabeled ligand, and [R]T is the total concentration of the receptor. The angle θ is defined […]
(§9) In the competitive binding experiments, the values of [L∗]T, [R]T and Kd∗ are known and [L]T is titrated. The values of minimal and maximal anisotropy rmin and rmax were fixed during fitting at the values of the minimal and maximal asymptotes obtained from the direct binding experiments. The value of Kd was calculated as the only unfixed parameter in the model.
(§10) Experimental constants used for the competitive fluorescence polarization experiments are […]
(§11) Table S2. Experimental constants used for competitive fluorescence polarization experiments. […]
For orientation: Polarisation of emitted light reports the rotation of a fluorescent probe.

Assay [2] addresses T2, human galectin-3C (Gal-3C, C-terminal CRD of galectin-3) (Homo sapiens, UniProt P17931).
T2 construct: only the C-terminal domain was used (Gal-3C); 6xHis tag with TEV protease site (N, cleaved yes); made in house; host or cells: BL21 Escherichia coli (pET-15b)
In words: Competitive fluorescence polarization assay, Gal-3C. The format is binding. The procedure: as §1, §2, §3, §4, §5, §6, §7, §8, §9, §10, §11

[3] abbreviates: CSV supplement, unrounded mean, read-out: Gal1_IC50_mean_uM.
The mark [4] stands for this setting: CSV supplement, unrounded mean, read-out: Gal1_Kd_mean_uM.
Setting [5] is: competitive fluorescence polarization, mean ± SD, read-out: Kd Gal-1.
[6] abbreviates: four-parameter logistic model, mean ± SD, read-out: IC50 Gal-1.
The mark [7] stands for this setting: CSV supplement, unrounded mean, read-out: Gal3C_IC50_mean_uM.
Setting [8] is: CSV supplement, unrounded mean, read-out: Gal3C_Kd_mean_uM.
[9] abbreviates: competitive fluorescence polarization, mean ± SD, read-out: Kd Gal-3C.
[10] abbreviates: four-parameter logistic model, mean ± SD, read-out: IC50 Gal-3C.

We go through seven compounds from PMC12670426 (Journal of Medicinal Chemistry, 2025).

Like-named read-outs stand apart in the source and are kept apart here.

T2 sequence (P17931 118-248 limits assumed): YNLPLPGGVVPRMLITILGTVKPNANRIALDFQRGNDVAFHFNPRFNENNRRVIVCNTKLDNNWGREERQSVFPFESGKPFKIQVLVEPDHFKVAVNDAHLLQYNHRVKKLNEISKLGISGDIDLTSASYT
T1 sequence (P09382 2-135): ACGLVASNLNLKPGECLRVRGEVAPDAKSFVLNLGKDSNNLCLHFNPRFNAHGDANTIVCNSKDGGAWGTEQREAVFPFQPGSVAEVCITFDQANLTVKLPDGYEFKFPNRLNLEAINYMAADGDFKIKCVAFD

On to `O=C(O)c1cccc(N(C(=O)Cc2ccccc2)[C@@H]2O[C@H](CO)[C@@H](O[C@@H]3O[C@H](CO)[C@H](O)[C@H](O)[C@H]3O)[C@H](O)[C@H]2O)c1` [Compound 3u, N-[4-O-(β-D-Galactopyranosyl)-β-D-glucopyranosyl]-N-(3-carboxyphenyl)-2-phenylacetamide], for which the IC50 in assay [1] (setting [3]) came to 2150 µM; in assay [1] (setting [6]) it was 2100 ± 800 µM; in assay [2] (setting [7]), 133 µM; in assay [2] (setting [10]) it was 130 ± 20 µM. Also, the Kd in assay [1] (setting [4]) turned out to be 1240 µM; in assay [1] (setting [5]) it was 1200 ± 10 µM; in assay [2] (setting [8]), 53.6 µM; in assay [2] (setting [9]), 54 ± 6 µM.
In the case of `COC(=O)c1cccc(N(C(C)=O)[C@@H]2O[C@H](CO)[C@@H](O[C@@H]3O[C@H](CO)[C@H](O)[C@H](O)[C@H]3O)[C@H](O)[C@H]2O)c1` [Compound 3v, N-[4-O-(β-D-Galactopyranosyl)-β-D-glucopyranosyl]-N-[3-(methylcarboxy)phenyl]acetamide], the IC50 in assay [1] (setting [3]) was determined as 655 µM; in assay [1] (setting [6]), 660 ± 100 µM; in assay [2] (setting [7]), 241 µM; in assay [2] (setting [10]) it was 240 ± 30 µM. The Kd in assay [1] (setting [4]) stood at 432 µM; in assay [1] (setting [5]), 430 ± 30 µM; in assay [2] (setting [8]), 94.6 µM; in assay [2] (setting [9]), 95 ± 40 µM.
Take `CNC(=O)c1cccc(N(C(C)=O)[C@@H]2O[C@H](CO)[C@@H](O[C@@H]3O[C@H](CO)[C@H](O)[C@H](O)[C@H]3O)[C@H](O)[C@H]2O)c1` [Compound 3w, N-[4-O-(β-D-Galactopyranosyl)-β-D-glucopyranosyl]-N-[3-(methylcarbamoyl)phenyl]acetamide]: the IC50 in assay [1] (setting [3]) was 666 µM; in assay [1] (setting [6]), 670 ± 90 µM; in assay [2] (setting [7]), 220 µM; in assay [2] (setting [10]), 220 ± 6 µM. The Kd turned out to be 445 µM in assay [1] (setting [4]), 440 ± 100 µM in assay [1] (setting [5]), 88.1 µM in assay [2] (setting [8]) and 88 ± 20 µM in assay [2] (setting [9]).
In the case of `CC(=O)N(c1cccc(CO)c1)[C@@H]1O[C@H](CO)[C@@H](O[C@@H]2O[C@H](CO)[C@H](O)[C@H](O)[C@H]2O)[C@H](O)[C@H]1O` [Compound 3x, N-[4-O-(β-D-Galactopyranosyl)-β-D-glucopyranosyl]-N-[3-(hydroxymethyl)phenyl]acetamide], the IC50 in assay [1] (setting [3]) is 842 µM; in assay [1] (setting [6]) it was 840 ± 90 µM; in assay [2] (setting [7]) it was 273 µM; in assay [2] (setting [10]), 270 ± 0.9 µM. In addition, the Kd in assay [1] (setting [4]) came to 542 µM; in assay [1] (setting [5]), 540 ± 60 µM; in assay [2] (setting [8]), 106 µM; in assay [2] (setting [9]), 110 ± 30 µM. For the same compound, the “decrease of affinity toward Gal-3C compared to 3r” value in assay [2] (compared to 3r) was determined as 2 fold.
For `CC(=O)N(c1cccc(-c2nnn[nH]2)c1)[C@@H]1O[C@H](CO)[C@@H](O[C@@H]2O[C@H](CO)[C@H](O)[C@H](O)[C@H]2O)[C@H](O)[C@H]1O` [Compound 3y, N-[4-O-(β-D-Galactopyranosyl)-β-D-glucopyranosyl]-N-[3-(1H-tetrazol-5-yl)phenyl]acetamide], the IC50 in assay [1] (setting [3]) worked out at 1260 µM; in assay [1] (setting [6]), 1300 ± 100 µM; in assay [2] (setting [7]) it was 123 µM; in assay [2] (setting [10]), 120 ± 9 µM. Further, the Kd in assay [1] (setting [4]) amounted to 812 µM; in assay [1] (setting [5]) it was 810 ± 200 µM; in assay [2] (setting [8]), 48.8 µM; in assay [2] (setting [9]) it was 49 ± 20 µM.
Regarding `CC(=O)N(c1cccc(-c2ccc(C)o2)c1)[C@@H]1O[C@H](CO)[C@@H](O[C@@H]2O[C@H](CO)[C@H](O)[C@H](O)[C@H]2O)[C@H](O)[C@H]1O` [Compound 3z, N-[4-O-(β-D-Galactopyranosyl)-β-D-glucopyranosyl]-N-[3-(5-methylfuran-2-yl)phenyl]acetamide], the IC50 was determined as 860 µM in assay [1] (setting [3]), 860 ± 100 µM in assay [1] (setting [6]), 327 µM in assay [2] (setting [7]) and 330 ± 1 µM in assay [2] (setting [10]). The Kd was determined as 558 µM in assay [1] (setting [4]), 560 ± 80 µM in assay [1] (setting [5]), 121 µM in assay [2] (setting [8]) and 120 ± 30 µM in assay [2] (setting [9]).
For `CO[C@@H]1O[C@H](CO)[C@@H](O[C@@H]2O[C@H](CO)[C@H](O)[C@H](O)[C@H]2O)[C@H](O)[C@H]1O` [β-LacOMe, methyl β-lactoside, reference compound], the IC50 in assay [1] (setting [3]) was 1640 µM; in assay [1] (setting [6]), 1600 ± 70 µM; in assay [2] (setting [7]) it was 756 µM; in assay [2] (setting [10]), 760 ± 90 µM. Further, the Kd in assay [1] (setting [4]) amounted to 770 µM; in assay [1] (setting [5]), 770 ± 200 µM; in assay [2] (setting [8]), 234 µM; in assay [2] (setting [9]) it was 230 ± 20 µM.
